Measured values: ChEMBL document CHEMBL1146010, “Synthesis and in vitro antimycobacterial activity of N1-nicotinoyl-3-(4'-hydroxy-3'-methyl phenyl)-5-[(sub)phenyl]-2-pyrazolines” (2006)
Converted amounts (≈) assume the structure as drawn.

What was measured:
[1] = test system: Mycobacterium tuberculosis; experiment: Antimycobacterial activity against Mycobacterium tuberculosis H37Rv by agar dilution method; type: functional
Vero = experiment: Cytotoxicity against Vero cell line upto 62.5 ug/ml after 72 hrs by MTT assay; type: functional, cell-based; settings: Chlorocebus sabaeus

| Compound | MIC [1] [µM] | Activity (Vero) |
| --- | --- | --- |
| Cc1cc(C2=NN(C(=O)c3ccncc3)C(c3ccco3)C2)ccc1O (stereo not given) | 0.58 (≈ 0.201 µg/mL) |  |
| Cc1cc(C2=NN(C(=O)c3ccncc3)C(c3ccccc3Cl)C2)ccc1O (stereo not given) | 0.26 (≈ 0.102 µg/mL) | Not toxic |
| Cc1cc(C2=NN(C(=O)c3ccncc3)C(c3cccc([N+](=O)[O-])c3)C2)ccc1O (stereo not given) | 15.5 (≈ 6.25 µg/mL) |  |
| Cc1cc(C2=NN(C(=O)c3ccncc3)C(c3ccc(N(C)C)cc3)C2)ccc1O (stereo not given) | 1.95 (≈ 0.781 µg/mL) |  |
| COc1ccc(C2CC(c3ccc(O)c(C)c3)=NN2C(=O)c2ccncc2)cc1 (stereo not given) | 16.1 (≈ 6.25 µg/mL) |  |
| Cc1cc(C2=NN(C(=O)c3ccncc3)C(c3ccc(Cl)cc3)C2)ccc1O (stereo not given) | 1.99 (≈ 0.78 µg/mL) |  |
| NNC(=O)c1ccncc1 [ISONIAZID] | 0.73 (≈ 0.1 µg/mL) |  |
| COc1ccc(C2CC(c3ccc(O)c(C)c3)=NN2C(=O)c2ccncc2)c(OC)c1OC (stereo not given) | 3.93 (≈ 1.76 µg/mL) |  |
| Cc1cc(C2=NN(C(=O)c3ccncc3)C(c3ccc(F)cc3)C2)ccc1O (stereo not given) | 0.27 (≈ 0.101 µg/mL) | Not toxic |
| Cc1cc(C2=NN(C(=O)c3ccncc3)C(c3ccccc3)C2)ccc1O (stereo not given) | 8.73 (≈ 3.12 µg/mL) |  |
| COc1ccc(C2CC(c3ccc(O)c(C)c3)=NN2C(=O)c2ccncc2)cc1OC (stereo not given) | 1.87 (≈ 0.781 µg/mL) |  |
| Cc1cc(C2=NN(C(=O)c3ccncc3)C(c3c(Cl)cccc3Cl)C2)ccc1O (stereo not given) | 0.47 (≈ 0.2 µg/mL) | Not toxic |
